In the supplement of paper PMC11061612:

Key:
[1] = compound: CC1=CN2[C@@H](C1)C=NC3=CC(=C(C=C3C2=O)OC)OCCCCCOC4=C(C=C5C(=C4)N=C[C@@H]6CC(=CN6C5=O)C)OC [SG3199]; conditions: max 0.001 µM
In short: (§1)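 Cancer cell lines in 1536-well plates (7.5 μl DMEM/F12 or RPMI, 10% FBS) were held 24 hours at 37°C and 5% CO2 and then dosed for 72 hours at a final DMSO of typically 0.2%. Viability was taken from CellTiter-Glo 2.0 luminescence, scaled between blank-well and DMSO-well means. Curves were fitted as two-parameter logistic models with a non-linear mixed effects model, from which the single-agent IC50 was taken.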

[2] = compound: NC1(c2ccc(-c3nc4ccn5c(=O)[nH]nc5c4cc3-c3ccccc3)cc2)CCC1 [MK-2206]; conditions: max 10 µM
In short: as §1

[3] = compound: Cc1c2c(nn1C)CSCc1cc(n(C)n1)CSc1cc(c3ccccc3c1)OCCCc1c(C(=O)O)n(C)c3c-2c(Cl)ccc13 [AZD5991]; conditions: max 1 µM
In short: as §1

[4] = compound: Cc1cc2ncnn2cc1Nc1ncc2c(n1)n(C1CCOCC1)c(=O)n2C [AZD7648]; conditions: max 10 µM
In short: as §1

[5] = compound: CC1=C(C(=CC=C1)Cl)NC(=O)C2=CN=C(S2)NC3=CC(=NC(=N3)C)N4CCN(CC4)CCO [Dasatinib]; conditions: max 2 µM
In short: as §1

[6] = compound: O=c1[nH]cc(F)c(=O)[nH]1 [5-Fluorouracil]; conditions: max 20 µM
In short: as §1

[7] = compound: CC(C)n1c(=O)n(C)c2cnc3cc(F)c(-c4ccc(OCCCN5CCCCC5)nc4)cc3c21 [AZD1390]; conditions: max 0.3 µM
In short: as §1

[8] = compound: COc1cc([C@@H]2c3cc4c(cc3[C@@H](O[C@@H]3O[C@@H]5CO[C@@H](C)O[C@H]5[C@H](O)[C@H]3O)[C@H]3COC(=O)[C@H]23)OCO4)cc(OC)c1O [Etoposide]; conditions: max 10 µM
In short: as §1

[9] = compound: COc1nnc2ccc(N3CCC(c4ccc(OCCN5CCN(C)C(=O)[C@H]5C)cc4)CC3)nn12 [AZD5153]; conditions: max 1 µM
In short: as §1

[10] = compound: CC1(C)CCC(CN2CCN(c3ccc(C(=O)NS(=O)(=O)c4ccc(NCC5CCOCC5)c([N+](=O)[O-])c4)c(Oc4cnc5[nH]ccc5c4)c3)CC2)=C(c2ccc(Cl)cc2)C1 [Venetoclax]; conditions: max 1 µM
In short: as §1

[11] = compound: CC(=O)O[C@H]1C(=O)[C@@]2(C)[C@H]([C@H](OC(=O)c3ccccc3)[C@]3(O)C[C@H](OC(=O)[C@H](O)[C@@H](NC(=O)c4ccccc4)c4ccccc4)C(C)=C1C3(C)C)[C@]1(OC(C)=O)CO[C@@H]1C[C@@H]2O [Paclitaxel]; conditions: max 3 µM
In short: as §1

[12] = compound: COc1cccc2c1C(=O)c1c(O)c3c(c(O)c1C2=O)C[C@@](O)(C(=O)CO)C[C@@H]3O[C@H]1C[C@H](N)[C@H](O)[C@H](C)O1 [Doxorubicin]; conditions: max 1 µM
In short: as §1

[13] = compound: CCN(CCO)CCCOc1ccc2c(Nc3cc(CC(=O)Nc4cccc(F)c4)[nH]n3)ncnc2c1 [AZD2811]; conditions: max 1 µM
In short: as §1

[14] = compound: C[C@@H](Nc1cc(F)cc(F)c1)c1cc(C(=O)N(C)C)cc2c(=O)cc(N3CCOCC3)oc12 [AZD8186]; conditions: max 10 µM
In short: as §1

[15] = compound: COc1cccc(OCCCN)c1-c1cc(Nc2cnc(C#N)cn2)n[nH]1 [Prexasertib]; conditions: max 1 µM
In short: as §1

[16] = compound: C[C@@H]1COCCN1C2=NC(=NC(=C2)C3(CC3)[S@](=N)(=O)C)C4=C5C=CNC5=NC=C4 [AZD6738]; conditions: max 10 µM
In short: as §1

[17] = compound: Cc1nc(-c2cn3c(n2)-c2ccc(-c4cnn(C(C)(C)C(N)=O)c4)cc2OCC3)n(C(C)C)n1 [Taselisib]; conditions: max 10 µM
In short: as §1

[18] = compound: C[C@@H](Oc1cc(-c2cnn(C3CCNCC3)c2)cnc1N)c1c(Cl)ccc(F)c1Cl [Crizotinib]; conditions: max 10 µM
In short: as §1

[19] = compound: CN(C)CCCOc1ccc(-c2ccc3ncc4c(c3c2)n(C2CCOCC2)c(=O)n4C)cn1 [AZD0156]; conditions: max 3 µM
In short: as §1

[20] = compound: C=CCn1c(=O)c2cnc(Nc3ccc(N4CCN(C)CC4)cc3)nc2n1-c1cccc(C(C)(C)O)n1 [AZD1775]; conditions: max 3 µM
In short: as §1

[21] = compound: Cn1cnc2c(F)c(Nc3ccc(Br)cc3Cl)c(C(=O)NOCCO)cc21 [Selumetinib]; conditions: max 10 µM
In short: as §1

[22] = compound: COc1cc2ncnc(Nc3ccc(F)c(Cl)c3)c2cc1OCCCN1CCOCC1 [Gefitinib]; conditions: max 10 µM
In short: as §1

[23] = compound: O=C(Nc1ccc2[nH]nc(-c3ccncc3)c2c1)[C@@H]1CCN(CC(=O)N2CCN(c3ccc(-c4ncccn4)cc3)CC2)C1; conditions: max 5 µM
In short: as §1

[24] = compound: C[C@@H](c1ccc2nccn2c1)n1nnc2ncc(-c3cnn(C)c3)nc21 [Savolitinib]; conditions: max 1 µM
In short: as §1

[25] = compound: N#Cc1cnc(Nc2cc(NC[C@H]3CNCCO3)c(C(F)(F)F)cn2)cn1 [SRA737]; conditions: max 10 µM
In short: as §1

[26] = compound: O=C(c1cc(Cc2n[nH]c(=O)c3ccccc23)ccc1F)N1CCN(C(=O)C2CC2)CC1 [Olaparib]; conditions: max 10 µM
In short: as §1

[27] = compound: CCc1c2c(nc3ccc(O)cc13)-c1cc3c(c(=O)n1C2)COC(=O)[C@]3(O)CC [SN-38]; conditions: max 0.3 µM
In short: as §1

[28] = compound: COc1cc(Nc2ncc3c(n2)-c2ccc(Cl)cc2C(c2c(F)cccc2OC)=NC3)ccc1C(=O)O [Alisertib]; conditions: max 10 µM
In short: as §1

[29] = compound: Nc1ccn([C@@H]2O[C@H](CO)[C@@H](O)C2(F)F)c(=O)n1 [Gemcitabine]; conditions: max 0.3 µM
In short: as §1

[30] = compound: C1CN(CCC1(C(=O)N[C@@H](CCO)C2=CC=C(C=C2)Cl)N)C3=NC=NC4=C3C=CN4 [AZD5363]; conditions: max 10 µM
In short: as §1

[31] = compound: CC(=O)c1c(C)c2cnc(Nc3ccc(N4CCNCC4)cn3)nc2n(C2CCCC2)c1=O [Palbociclib]; conditions: max 10 µM
In short: as §1

[32] = compound: CN(CC[C@H](CSC1=CC=CC=C1)NC2=C(C=C(C=C2)S(=O)(=O)NC(=O)C3=CC=C(C=C3)N4CCC(CC4)[C@H](C5=CC=CC=C5C6=CC=C(C=C6)Cl)O)S(=O)(=O)C(F)(F)F)CCO [AZD4320]; conditions: max 1 µM
In short: as §1

[33] = compound: CS(=O)(=O)CCNCc1ccc(-c2ccc3ncnc(Nc4ccc(OCc5cccc(F)c5)c(Cl)c4)c3c2)o1 [Lapatinib]; conditions: max 10 µM
In short: as §1

[34] = compound: C1CC(C1)(C(=O)[O-])C(=O)[O-].N.N.[Pt+2] [Carboplatin]; conditions: max 10 µM
In short: as §1

[35] = compound: CC(=O)Nc1cccc(-n2c(=O)n(C3CC3)c(=O)c3c(Nc4ccc(I)cc4F)n(C)c(=O)c(C)c32)c1 [Trametinib]; conditions: max 1 µM
In short: as §1

Cell Line	IC50, cell viability 72 h [1] [µM]	IC50, cell viability 72 h [2] [µM]	IC50, cell viability 72 h [3] [µM]	IC50, cell viability 72 h [4] [µM]	IC50, cell viability 72 h [5] [µM]	IC50, cell viability 72 h [6] [µM]	IC50, cell viability 72 h [7] [µM]	IC50, cell viability 72 h [8] [µM]	IC50, cell viability 72 h [9] [µM]	IC50, cell viability 72 h [10] [µM]	IC50, cell viability 72 h [11] [µM]	IC50, cell viability 72 h [12] [µM]	IC50, cell viability 72 h [13] [µM]	IC50, cell viability 72 h [14] [µM]	IC50, cell viability 72 h [15] [µM]	IC50, cell viability 72 h [16] [µM]	IC50, cell viability 72 h [17] [µM]	IC50, cell viability 72 h [18] [µM]	IC50, cell viability 72 h [19] [µM]	IC50, cell viability 72 h [20] [µM]	IC50, cell viability 72 h [21] [µM]	IC50, cell viability 72 h [22] [µM]	IC50, cell viability 72 h [23] [µM]	IC50, cell viability 72 h [24] [µM]	IC50, cell viability 72 h [25] [µM]	IC50, cell viability 72 h [26] [µM]	IC50, cell viability 72 h [27] [µM]	IC50, cell viability 72 h [28] [µM]	IC50, cell viability 72 h [29] [µM]	IC50, cell viability 72 h [30] [µM]	IC50, cell viability 72 h [31] [µM]	IC50, cell viability 72 h [32] [µM]	IC50, cell viability 72 h [33] [µM]	IC50, cell viability 72 h [34] [µM]	IC50, cell viability 72 h [35] [µM]
HT-29 (Colorectal Carcinoma)	> 0.001	> 10	> 1	> 10	> 2	> 20	> 0.3	> 10	0.155	> 1	0.018	> 1	> 1	> 10	0.0283	2.39	2.22	6.73	> 3	0.31	1	> 10	0.436	> 1	4.64	> 10	0.0647	> 10	0.161	> 10	> 10	> 1	> 10	> 10	0.0119
IHH-4 (Thyroid Gland Carcinoma)	> 0.001	> 10	> 1	> 10	0.961	3.43	> 0.3	1.67	0.68	> 1	0.007	0.275	> 1	> 10	0.0994	4.34	> 10	7.34	> 3	0.414	4.47	> 10	1.22	> 1	> 10	> 10	0.00541	5.97	0.00874	> 10	> 10	> 1	> 10	> 10	0.0853
KARPAS-620 (Plasma Cell Myeloma)	> 0.001	2.23	0.0599	> 10	> 2	> 20	> 0.3	> 10	0.167	0.0846	0.00698	> 1	> 1	> 10	0.0804	> 10	0.501	4.75	> 3	1.48	5.72	> 10	> 5	> 1	> 10	> 10	> 0.3	10	> 0.3	1.62	> 10	0.00591	> 10	> 10	0.929
KARPAS-1106P (B-Cell Non-Hodgkin's Lymphoma)	> 0.001	> 10	0.127	> 10	0.213	> 20	> 0.3	1.79	0.132	> 1	0.134	0.146	> 1	0.705	0.0112	3.96	0.462	4	> 3	0.495	> 10	> 10	> 5	> 1	2.18	> 10	0.00305	> 10	0.0183	> 10	> 10	> 1	> 10	> 10	> 1
KATOIII (Gastric Carcinoma)	> 0.001	> 10	> 1	> 10	> 2	14.3	> 0.3	> 10	> 1	> 1	> 3	> 1	> 1	> 10	0.42	> 10	> 10	> 10	> 3	> 3	> 10	> 10	4.46	> 1	> 10	> 10	> 0.3	1.79	> 0.3	> 10	> 10	> 1	> 10	> 10	0.893
